Experimental data published in the supplement of paper PMC10307832.

Experiments:
Test in all cases: relative viability (nuclei count vs DMSO), 5 days (fraction); higher = more cells survive
[1] = compound: C[C@@H](N)c1ccc(C(=O)Nc2ccnc3[nH]ccc23)cc1 + C[C@]1(O)C[C@@H](c2nc(-c3ccc4ccc(-c5ccccc5)nc4c3)c3c(N)nccn32)C1 [Linsitinib] (partner 1 µM)
Summary of the method: (§1)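 Lung cancer cell lines in 1536-well plates got either a single drug or a fixed anchor-drug dose together with five library-drug doses (not always all listed) in √10 steps, by pin tool, on the day after seeding. Nuclei were counted after 5 days, and relative viability is the treated-to-vehicle ratio of nuclei counts. Values are medians of duplicate plates.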

[2] = compound: C1CNCCC1C2=CC(=NN2)C3=CC=NC=C3 + O=C(CCCCCCC(=O)Nc1ccccc1)NO [Vorinostat] (partner 1 µM)
Summary of the method: as §1

Tanzisertib + Phenformin = compound: O[C@H]1CC[C@H](Nc2ncc3nc(Nc4c(F)cc(F)cc4F)n([C@H]4CCOC4)c3n2)CC1 [Tanzisertib] + N=C(N)NC(=N)NCCc1ccccc1 [Phenformin] (partner 250 µM)
Summary of the method: as §1

[3] = compound: C1CNCCC1C2=CC(=NN2)C3=CC=NC=C3 + Cc1cc(Nc2cc(N3CCN(C)CC3)nc(Sc3ccc(NC(=O)C4CC4)cc3)n2)n[nH]1 [Tozasertib] (partner 0.1 µM)
Summary of the method: as §1

Row | Cell Line | relative viability ([1]; first compound 0.04 µM) | relative viability ([1]; first compound 0.1265 µM) | relative viability ([1]; first compound 0.4 µM) | relative viability ([1]; first compound 1.265 µM) | relative viability ([1]; first compound 4 µM) | relative viability ([2]; first compound 0.08 µM) | relative viability ([2]; first compound 0.8 µM) | relative viability ([2]; first compound 2.53 µM) | relative viability ([2]; first compound 8 µM) | relative viability (Tanzisertib + Phenformin; first compound 0.08 µM) | relative viability (Tanzisertib + Phenformin; first compound 0.253 µM) | relative viability (Tanzisertib + Phenformin; first compound 0.8 µM) | relative viability (Tanzisertib + Phenformin; first compound 2.53 µM) | relative viability (Tanzisertib + Phenformin; first compound 8 µM) | relative viability ([3]; first compound 0.08 µM) | relative viability ([3]; first compound 0.8 µM) | relative viability ([3]; first compound 2.53 µM) | relative viability ([3]; first compound 8 µM)
1 | NCI-H1437 | 1.14 | 1.04 | 1.07 | 1.14 | 0.897 | 0.863 | 0.94 | 0.912 | 0.971 | 0.287 | 0.314 | 0.303 | 0.276 | 0.283 | 0.412 | 0.415 | 0.417 | 0.421
2 | NCI-H1651 | 1.12 | 0.932 | 0.987 | 1.13 | 0.994 | 0.512 | 0.581 | 0.577 | 0.589 | 0.327 | 0.371 | 0.305 | 0.322 | 0.332 | 0.598 | 0.685 | 0.767 | 0.735
3 | NCI-H1666 | 0.849 | 1.04 | 1.01 | 1.12 | 0.966 | 0.964 | 1.06 | 1.07 | 1.08 | 0.595 | 0.602 | 0.56 | 0.607 | 0.59 | 0.59 | 0.7 | 0.693 | 0.755
4 | NCI-H1734 | 0.901 | 0.905 | 0.805 | – | 0.708 | 0.749 | 0.873 | 0.89 | 0.85 | 0.469 | 0.406 | 0.356 | 0.387 | 0.334 | 0.27 | 0.279 | 0.269 | 0.271
5 | NCI-H1755 | 1.03 | 0.977 | 0.947 | 0.86 | 0.716 | 0.717 | 0.737 | 0.628 | 0.736 | 0.692 | 0.612 | 0.595 | 0.649 | 0.632 | 0.583 | – | 0.643 | 0.526
6 | NCI-H1793 | 1.02 | 0.878 | 0.83 | – | 0.787 | 0.647 | – | 0.985 | 0.874 | 0.448 | 0.339 | 0.41 | 0.379 | 0.367 | 0.313 | 0.243 | 0.332 | 0.373
7 | NCI-H1915 | 1.1 | 1.13 | 1.12 | – | 1.03 | 0.542 | 0.554 | 0.519 | 0.55 | 0.4 | 0.355 | 0.364 | 0.365 | 0.291 | 0.475 | 0.435 | 0.451 | 0.438
8 | NCI-H1944 | 1.28 | 1.16 | 1.17 | – | 0.835 | 0.435 | 0.555 | 0.603 | 0.522 | 0.23 | 0.197 | 0.21 | 0.198 | 0.203 | 0.243 | 0.264 | 0.263 | 0.256
9 | NCI-H1975 | 1.01 | 0.915 | 0.964 | 0.778 | 0.619 | 0.74 | 0.758 | 0.702 | 0.685 | 0.419 | 0.404 | 0.409 | 0.424 | 0.441 | 0.885 | 0.759 | 0.725 | 0.724
10 | NCI-H1993 | 0.824 | 0.753 | – | 0.834 | 0.663 | 0.883 | 0.722 | 0.767 | 1.03 | 0.484 | 0.508 | 0.49 | 0.491 | 0.537 | 0.586 | 0.618 | 0.564 | 0.653
11 | NCI-H2009 | 1.21 | 1.06 | 1.01 | 0.966 | 0.709 | 0.754 | 0.693 | 0.8 | 0.728 | 0.52 | 0.483 | 0.515 | 0.593 | 0.553 | 0.713 | 0.74 | 0.689 | 0.696
12 | NCI-H2023 | 0.734 | 0.691 | 0.724 | 0.798 | 0.663 | 0.262 | 0.589 | 0.767 | 0.602 | 0.427 | 0.37 | 0.407 | 0.411 | 0.404 | 0.351 | 0.3 | 0.482 | 0.256
13 | NCI-H2085 | 1.02 | 0.907 | 0.905 | 0.868 | 0.777 | 0.858 | – | 0.809 | 0.845 | 0.739 | 0.724 | 0.81 | 0.715 | 0.461 | 0.934 | – | 0.847 | 0.832
14 | NCI-H2087 | 1 | 0.823 | 0.916 | 0.824 | 0.478 | 0.682 | 0.8 | 0.738 | 0.684 | 0.464 | 0.502 | 0.463 | 0.447 | 0.322 | 0.267 | 0.231 | 0.226 | 0.202
15 | NCI-H2126 | 0.726 | 0.72 | 0.805 | 0.705 | 0.781 | 0.79 | 0.712 | 0.778 | 0.797 | 0.566 | 0.548 | 0.545 | 0.534 | 0.516 | 0.674 | 0.974 | 0.916 | 0.858
16 | NCI-H2228 | 0.63 | 0.587 | 0.62 | 0.637 | 0.82 | 0.537 | 0.589 | 0.667 | 0.587 | 0.399 | 0.279 | 0.397 | 0.275 | 0.227 | 0.28 | 0.191 | 0.274 | 0.309
17 | NCI-H2347 | 0.937 | 0.868 | 1.02 | 1.02 | 0.8 | 0.541 | 0.486 | 0.573 | 0.627 | 0.445 | – | 0.434 | 0.306 | 0.376 | 0.766 | 0.599 | 0.557 | 0.571
18 | NCI-H2405 | – | 1.07 | 0.744 | 0.599 | 0.45 | 1.04 | 0.993 | 1.06 | 0.901 | 0.454 | 0.393 | 0.426 | 0.385 | 0.345 | 0.749 | 0.751 | 0.692 | 0.525
19 | NCI-H3122 | 1.03 | 0.985 | 0.964 | 1.02 | 1.03 | 0.717 | 0.994 | 1.05 | 1.12 | 0.398 | 0.423 | 0.378 | 0.426 | 0.314 | 0.366 | 0.416 | 0.408 | 0.417
